Where a name gives a salt, the structure may show the parent alone.
molecular target: T1, human BRD4 bromodomain II (Homo sapiens, UniProt O60885); test: Bromodomain binding assay (AlphaScreen), BRD4 BDII; details: AlphaScreen assay, Table C2; read-out: BRD4 BDII IC50
T1 construct: human BRD4 bromodomain II [based on Genbank NM_058243, residues 349-460]; host or cells: E. coli
Experimental: Bromodomain Binding Assay
The bromodomain binding assay utilizes AlphaScreen technology. Compounds compete with a biotinylated peptide ligand (from histone H4: aa 1-21, K5/K8/K12/K16Ac-biotin) for binding to a hexahistidine (His6)-tagged bromodomain. Peptide binding is detected by fluorescence signal after singlet oxygen energy transfer from peptide-bound AlphaScreen streptavidin-coated donor beads to His6-tagged bromodomain-bound nickel-chelate acceptor beads (PerkinElmer). Briefly, 8 μL 2.5× bromodomain (E. coli expressed, N-terminal His6-tagged human BRD4 bromodomain II [based on Genbank NM_058243, residues 349-460] or N-terminal His6-tagged human BRD4 bromodomain I [residues 44-170]) in reaction buffer (50 mM HEPES [pH 7.5], 100 mM NaCl, 0.05% CHAPS, 0.1% BSA, 1% DMSO) is added to wells of an assay plate (384-well low flange white, flat bottom, polystyrene microplate, Corning #3572; buffer only is added to some wells as a negative control). A compound concentration series (10 concentrations, 3-fold serial dilutions previously prepared in 100% DMSO, or 100% DMSO only negative control) is delivered to the assay plate with an Echo 550 acoustic liquid handler (Labcyte), followed by plate centrifugation and incubation for 30 minutes at room temperature. Then 4 μL 5× biotinylated peptide ligand is added, followed by plate centrifugation and gentle shaking for 30 minutes at room temperature to mix. After this incubation, 4 μL 5× donor beads are added, and the plate is centrifuged, followed by brief gentle shaking to mix. Finally, 4 μL 5× acceptor beads are added, and the plate is centrifuged, followed by gentle shaking for 60 minutes at room temperature in the dark. AlphaScreen signal (excitation/emission: 680 nm/520-620 nm) is detected with an EnSpire multimode plate reader (PerkinElmer). Percentage peptide binding is plotted as a function of concentration, and curve fitting is used to determine competitive compound binding ICsos.

Compared with `CC(=O)Nc1ccc(-c2cccc(-c3ccc(NC(C)=O)c(Cl)c3)c2O)cc1F` [Example 46, N,N′-(3-Chloro-3″-fluoro-2′-hydroxy-[1,1′:3′,1″-terphenyl]-4,4″-diyl)diacetamide], `CC(=O)Nc1ccc(-c2cccc(-c3ccc(NC(C)=O)c(F)c3)c2O)cc1C` [Example 50, N,N′-(3-Fluoro-2′-hydroxy-3″-methyl-[1,1′:3′,1″-terphenyl]-4,4″-diyl)diacetamide] is lower in IC50: > 100 nM for the first, 10 to 100 nM for the second. The second is the more potent here.

First: O=C1CCCN1c1ccc(-c2cc(F)cc(-c3ccnc(N4CCNCC4)c3)c2O)cc1F [Example 216, 1-(3,5′-Difluoro-2′-hydroxy-3′-(2-(piperazin-1-yl)pyridin-4-yl)-[1,1′-biphenyl]-4-yl)pyrrolidin-2-one]
Second: O=C1CCCN1c1ccc(-c2cccc(-c3cc(N4CCNCC4)no3)c2O)cc1 [Example 43, 1-(2′-Hydroxy-3′-(3-(piperazin-1-yl)isoxazol-5-yl)-[1,1′-biphenyl]-4-yl)pyrrolidin-2-one 2,2,2-trifluoroacetate]
The IC50 of the first is lower: 1 to 10 nM for the first, 10 to 100 nM for the second. The first is the more potent here.

First: CC(=O)Nc1ccc(-c2cccc(-c3ccc4c(c3)CNC(=O)N4)c2O)cc1F [Example 155, N-(3-fluoro-2′-hydroxy-3′-(2-oxo-1,2,3,4-tetrahydroquinazolin-6-yl)-[1,1′-biphenyl]-4-yl)acetamide]
Second: CC(=O)Nc1ccc(-c2cccc(-c3ccc4c(c3)OCCN4C)c2O)cc1F [Example 144, N-(3-fluoro-2′-hydroxy-3′-(4-methyl-3,4-dihydro-2H-benzo[b][1,4]oxazin-7-yl)-[1,1′-biphenyl]-4-yl)acetamide]
The IC50 of the first is lower: 10 to 100 nM for the first, > 100 nM for the second. The first is the more potent here.

`CC(=O)Nc1ccc(-c2cccc(-c3cc(N4CCNCC4)sn3)c2O)cc1` [Example 8, N-(2′-Hydroxy-3′-(5-(piperazin-1-yl)isothiazol-3-yl)-[1,1′-biphenyl]-4-yl)acetamide] and `CC(=O)Nc1ccc(-c2cccc(-c3cc(N4CCNCC4)ccn3)c2O)cc1F` [Example 233, N-(3-fluoro-2′-hydroxy-3′-(4-(piperazin-1-yl)pyridin-2-yl)-[1,1′-biphenyl]-4-yl)acetamide] cannot be ordered by IC50: > 100 nM for the first, > 100 nM for the second.

First: CC(=O)Nc1ccc(-c2cccc(-c3ccc4c(c3)OCCCN4C(C)=O)c2O)cc1F [Example 104, N-(3′-(5-Acetyl-2,3,4,5-tetrahydrobenzo[b][1,4]oxazepin-8-yl)-3-fluoro-2′-hydroxy-[1,1′-biphenyl]-4-yl)acetamide]
Second: CC(=O)Nc1ccc(-c2cccc(-c3ccc(NC(C)=O)c(C#N)c3)c2O)cc1F [Example 49, N,N′-(3-Cyano-3″-fluoro-2′-hydroxy-[1,1′:3′,1″-terphenyl]-4,4″-diyl)diacetamide]
The IC50 of the first is higher: > 100 nM for the first, 10 to 100 nM for the second.

Compared with `CC(=O)Nc1ccc(-c2cccc(-c3ccc(NC(C)=O)c(F)c3)c2O)cc1` [Example 99, N,N′-(3-Fluoro-2′-hydroxy-[1,1′:3′,1″-terphenyl]-4,4″-diyl)diacetamide], `CC(=O)Nc1ccc(-c2cccc(-c3ccc(C)cc3)c2O)cc1F` [Example 60, N-(3-Fluoro-2′-hydroxy-4″-methyl-[1,1′:3′,1″-terphenyl]-4-yl)acetamide] is higher in IC50: 10 to 100 nM for the first, > 100 nM for the second. The first is the more potent here.

Compared with `CC(=O)Nc1ccc(-c2cccc(-c3cccc(N4CCC(CN)CC4)c3)c2O)cc1F` [Example 186, N-(3″-(4-(aminomethyl)piperidin-1-yl)-3-fluoro-2′-hydroxy-[1,1′:3′,1″-terphenyl]-4-yl)acetamide], `CC(=O)Nc1ccc(-c2cccc(-c3cccc(N4C[C@@H]5CC[C@H]4CN5)c3)c2O)cc1F` [Example 183, N-(3″-((1S,4S)-2,5-diazabicyclo[2.2.2]octan-2-yl)-3-fluoro-2′-hydroxy-[1,1′:3′,1″-terphenyl]-4-yl)acetamide] is lower in IC50: > 100 nM for the first, 10 to 100 nM for the second.

Compared with `CC(=O)Nc1ccc(-c2cccc(-c3cc(N4CCNCC4)no3)c2O)cc1C` [Example 21, N-(2′-Hydroxy-3-methyl-3′-(3-(piperazin-1-yl)isoxazol-5-yl)-[1,1′-biphenyl]-4-yl)acetamide hydrochloride], `CC(=O)Nc1ccc(-c2cccc(-c3cc(N4CCNCC4)no3)c2O)cc1C#N` [Example 64, N-(3-Cyano-2′-hydroxy-3′-(3-(piperazin-1-yl)isoxazol-5-yl)-[1,1′-biphenyl]-4-yl)acetamide 2,2,2-trifluoroacetate] is lower in IC50: > 100 nM for the first, 10 to 100 nM for the second. The second is the more potent here.

`CCOC(=O)c1ccc(-c2cccc(-c3ccc(NC(C)=O)c(F)c3)c2O)cc1` [Example 69, Ethyl 4″-acetamido-3″-fluoro-2′-hydroxy-[1,1′:3′,1″-terphenyl]-4-carboxylate] and `CCc1ccc(-c2cccc(-c3ccc(NC(C)=O)c(F)c3)c2O)cc1` [Example 82, N-(4″-Ethyl-3-fluoro-2′-hydroxy-[1,1′:3′,1″-terphenyl]-4-yl)acetamide] cannot be ordered by IC50: > 100 nM for the first, > 100 nM for the second.

Compared with `CC(=O)Nc1ccc(-c2cccc(-c3cc(N4CCNCC4)no3)c2O)cc1OC1CC2(COC2)C1` [Example 28, N-(3-(2-Oxaspiro[3.3]heptan-6-yloxy)-2′-hydroxy-3′-(3-(piperazin-1-yl)isoxazol-5-yl)-[1,1′-biphenyl]-4-yl)acetamide 2,2,2-trifluoroacetate], `CC(=O)Nc1ccc(-c2cccc(-c3cc(N4CCNCC4)no3)c2O)cn1` [Example 76, N-(5-(2-Hydroxy-3-(3-(piperazin-1-yl)isoxazol-5-yl)phenyl)pyridin-2-yl)acetamide 2,2,2-trifluoroacetate] is higher in IC50: 10 to 100 nM for the first, > 100 nM for the second. The first is the more potent here.

`CC(=O)Nc1ccc(-c2cccc(-c3ccc(NC(C)=O)c(C(F)(F)F)c3)c2O)cc1F` [Example 138, N,N′-(3-fluoro-2′-hydroxy-3″-(trifluoromethyl)-[1,1′:3′,1″-terphenyl]-4,4″-diyl)diacetamide] and `CCc1cc(-c2cccc(-c3ccc(NC(C)=O)c(F)c3)c2O)ccc1NC(C)=O` [Example 88, N,N′-(3-Ethyl-3″-fluoro-2′-hydroxy-[1,1′:3′,1″-terphenyl]-4,4″-diyl)diacetamide] cannot be ordered by IC50: > 100 nM for the first, > 100 nM for the second.

`CC(=O)Nc1ccc(-c2cccc(-n3cnc(-c4ccc(F)cc4)c3)c2O)cc1` [Example 18, N-(3′-(4-(4-Fluorophenyl)-1H-imidazol-1-yl)-2′-hydroxy-[1,1′-biphenyl]-4-yl)acetamide] and `CC(=O)Nc1ccc(-c2cccc(-c3ccccc3)c2O)cc1` [Example 12, N-(2′-Hydroxy-[1,1′:3′,1″-terphenyl]-4-yl)acetamide] cannot be ordered by IC50: > 100 nM for the first, > 100 nM for the second.

First: CC(=O)Nc1ccc(-c2cccc(-c3cnn(C4CCNCC4)c3)c2O)cc1 [Example 15, N-(2′-Hydroxy-3′-(1-(piperidin-4-yl)-1H-pyrazol-4-yl)-[1,1′-biphenyl]-4-yl)acetamide]
Second: CC(=O)Nc1ccc(-c2cccc(-c3ccnnc3)c2O)cc1F [Example 102, N-(3-Fluoro-2′-hydroxy-3′-(pyridazin-4-yl)-[1,1′-biphenyl]-4-yl)acetamide]
The IC50 of the first is higher: > 100 nM for the first, 10 to 100 nM for the second.

`CC(=O)Nc1ccc(-c2cccc(-c3cccc(N4CCC5(CCNC5)C4)c3)c2O)cc1F` (stereo not shown) [Example 221, N-(3-fluoro-2′-hydroxy-3″-(2,7-diazaspiro[4.4]nonan-2-yl)-[1,1′:3′,1″-terphenyl]-4-yl)acetamide] and `CC(=O)Nc1ccc(-c2cccc(-c3cccc(N4CC(C)NC(C)C4)c3)c2O)cc1F` (stereo not shown) [Example 200, N-(3″-(3,5-dimethylpiperazin-1-yl)-3-fluoro-2′-hydroxy-[1,1′:3′,1″-terphenyl]-4-yl)acetamide] fall in the same range of IC50: 1 to 10 nM for the first, 1 to 10 nM for the second.

First: CC(=O)Nc1ccc(-c2cccc(-c3ccc(NC(C)=O)c(OC4CCCC4)c3)c2O)cc1F [Example 73, N,N′-(3-(Cyclopentyloxy)-3″-fluoro-2′-hydroxy-[1,1′:3′,1″-terphenyl]-4,4″-diyl)diacetamide]
Second: CCOc1cc(-c2cccc(-c3ccc(NC(C)=O)c(F)c3)c2O)ccc1NC(C)=O [Example 52, N,N′-(3-Ethoxy-3″-fluoro-2′-hydroxy-[1,1′:3′,1″-terphenyl]-4,4″-diyl)diacetamide]
The IC50 of the first is higher: > 100 nM for the first, 10 to 100 nM for the second. The second is the more potent here.

`CC(=O)N(C)c1ccc(-c2cccc(-c3cc(N4CCNCC4)no3)c2O)cc1` [Example 9, N-(2′-Hydroxy-3′-(3-(piperazin-1-yl)isoxazol-5-yl)-[1,1′-biphenyl]-4-yl)-N-methylacetamide] and `CC(=O)Nc1ccc(-c2cccc(-c3cnc4c(ccn4C)c3)c2O)cc1F` [Example 125, N-(3-Fluoro-2′-hydroxy-3′-(1-methyl-1H-pyrrolo[2,3-b]pyridin-5-yl)-[1,1′-biphenyl]-4-yl)acetamide] cannot be ordered by IC50: > 100 nM for the first, > 100 nM for the second.

`COc1cccc(-c2cccc(-c3ccc(NC(C)=O)c(F)c3)c2O)c1` [Example 56, N-(3-fluoro-2′-hydroxy-3″-methoxy-[1,1′:3′,1″-terphenyl]-4-yl)acetamide] and `COc1ccc(C)c(-c2cccc(-c3ccc(NC(C)=O)c(F)c3)c2O)c1` [Example 147, N-(3-fluoro-2′-hydroxy-5″-methoxy-2″-methyl-[1,1′:3′,1″-terphenyl]-4-yl)acetamide] cannot be ordered by IC50: > 100 nM for the first, > 100 nM for the second.
